Test results taken from patent US20230097157A1, “Bicyclic Pyridin-2-one and pyrimidin-4-one Derivatives Useful As a Factor XIa Inhibitors” (Janssen Pharmaceutica NV, priority 2021, published 2023).
Read-outs that look alike come from different tables or passages of the source.

Assays:
human plasma kallikrein = human plasma kallikrein (Homo sapiens, UniProt P03952); assay: Kallikrein inhibition assay (FLINT) utilizing a quenched AMC peptide substrate Z-Gly-Pro-Arg-AMC; assay type: biochemical; conditions: kinetic (KIN) reads, read-out: Kallikrein KIN Inh IC50
Sequence of human plasma kallikrein (P03952 391-638 limits assumed): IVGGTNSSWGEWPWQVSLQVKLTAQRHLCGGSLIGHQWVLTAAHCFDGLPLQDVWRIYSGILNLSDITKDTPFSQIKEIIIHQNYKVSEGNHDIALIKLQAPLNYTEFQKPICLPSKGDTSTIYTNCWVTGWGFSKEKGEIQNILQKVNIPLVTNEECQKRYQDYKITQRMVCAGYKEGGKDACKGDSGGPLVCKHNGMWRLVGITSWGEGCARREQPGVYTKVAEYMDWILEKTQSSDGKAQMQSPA
Sequence of human plasma kallikrein (P03952 20-390 partner limits assumed): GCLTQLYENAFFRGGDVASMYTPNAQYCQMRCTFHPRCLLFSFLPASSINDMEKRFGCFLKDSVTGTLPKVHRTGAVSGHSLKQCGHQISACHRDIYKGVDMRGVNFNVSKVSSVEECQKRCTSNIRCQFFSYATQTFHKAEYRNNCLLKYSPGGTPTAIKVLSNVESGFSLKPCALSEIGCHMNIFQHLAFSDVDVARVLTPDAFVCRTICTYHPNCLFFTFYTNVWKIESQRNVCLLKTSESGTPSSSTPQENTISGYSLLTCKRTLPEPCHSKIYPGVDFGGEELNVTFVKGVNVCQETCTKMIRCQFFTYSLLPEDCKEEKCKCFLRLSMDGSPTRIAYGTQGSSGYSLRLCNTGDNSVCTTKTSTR
Procedure, shortened: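 IC50 from a 4-parameter logistic fit of % inhibition from 11 concentrations (3-fold, top 1 μM, 2% DMSO). Compound pre-incubated 30 min with 2 nM enzyme in Tris pH 7.5, NaCl, CaCl2, BSA, CHAPS, then 50 μM AMC peptide substrate added. Fluorescence (340/440 nm) followed every 5 min for 30 min at room temperature.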

Factor XIa = Factor XIa (Homo sapiens, UniProt P03951); assay: Factor XIa inhibition assay (FLINT) utilizing a fluorophore-quencher pair peptide substrate 5Fam-[…]-K5Tamra; assay type: biochemical; conditions: kinetic (KIN) reads, read-out: FXIa KIN Inh IC50
Sequence of Factor XIa (P03951 388-625 limits assumed): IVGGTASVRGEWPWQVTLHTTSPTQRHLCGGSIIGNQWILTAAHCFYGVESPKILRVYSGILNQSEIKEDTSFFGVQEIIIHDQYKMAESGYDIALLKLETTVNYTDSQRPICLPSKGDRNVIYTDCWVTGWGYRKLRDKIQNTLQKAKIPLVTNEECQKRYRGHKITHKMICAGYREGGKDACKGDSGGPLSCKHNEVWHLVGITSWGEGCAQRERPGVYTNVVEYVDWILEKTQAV
Sequence of Factor XIa (P03951 19-387 partner limits assumed): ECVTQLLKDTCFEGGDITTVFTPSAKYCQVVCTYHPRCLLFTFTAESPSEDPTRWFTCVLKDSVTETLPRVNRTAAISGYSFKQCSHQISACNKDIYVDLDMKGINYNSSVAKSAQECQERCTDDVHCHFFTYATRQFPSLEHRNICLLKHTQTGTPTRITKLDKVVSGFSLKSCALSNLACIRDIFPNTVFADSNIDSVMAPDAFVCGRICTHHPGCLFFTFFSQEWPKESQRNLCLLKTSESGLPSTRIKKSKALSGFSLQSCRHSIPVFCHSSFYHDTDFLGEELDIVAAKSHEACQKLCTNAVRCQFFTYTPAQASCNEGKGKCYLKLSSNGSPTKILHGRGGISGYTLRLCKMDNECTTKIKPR
Procedure, shortened: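 Compounds were tested as 11-point 3-fold dilutions from 100 nM (2% DMSO). They were preincubated 30 min with FXIa in 50 mM Tris pH 7.5, 5 mM CaCl2, then 15 μM fluorophore-quencher peptide was added. Cleavage was followed at 485/520 nm over 30 min, and IC50 was derived by 4-parameter logistic fit.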

An IC50 (human plasma kallikrein; unit μM) of over 10 µM and an IC50 (Factor XIa; unit μM) of over 10 µM were found for C[C@@H]1C[C@H](c2ncc(-c3ccnn3C)[nH]2)n2c1nc(-c1c(-n3cnnn3)ccc(Cl)c1F)cc2=O (stereo in doubt) [Example 143, (6R*,8R*)-2-(3-Chloro-2-fluoro-6-(1H-tetrazol-1-yl)phenyl)-8-methyl-6-(5-(1-methyl-1H-pyrazol-5-yl)-1H-imidazol-2-yl)-7,8-dihydropyrrolo[1,2-a]pyrimidin-4(6H)-one] in this work.
An IC50 (human plasma kallikrein; values in nM) of 0.168 µM and an IC50 (Factor XIa; values in nM) of 0.039 µM were found for C[C@H]1C[C@@H](c2ncc(-c3ncc(N)nc3C3CC3)[nH]2)n2c1nc(-c1c(-n3cnnn3)ccc(Cl)c1F)cc2=O (relative stereo) [Example 91, (6*S,8*S)-6-(5-(5-Amino-3-cyclopropylpyrazin-2-yl)-1H-imidazol-2-yl)-2-(3-chloro-2-fluoro-6-(1H-tetrazol-1-yl)phenyl)-8-methyl-7,8-dihydropyrrolo[1,2-a]pyrimidin-4(6H)-one] in this work.
An IC50 (human plasma kallikrein; values in nM) of 0.0073 µM and an IC50 (Factor XIa; values in nM) of 0.0001 µM were found for C[C@H]1C[C@@H](c2[nH]c(-c3ccc(N)nc3F)nc2F)n2c1cc(-c1c(-n3cnnn3)ccc(Cl)c1F)cc2=O [Example 34, (1S,3S)-3-(2-(6-Amino-2-fluoropyridin-3-yl)-4-fluoro-1H-imidazol-5-yl)-7-(3-chloro-2-fluoro-6-(1H-tetrazol-1-yl)phenyl)-1-methyl-2,3-dihydroindolizin-5(1H)-one] in this work.
An IC50 (human plasma kallikrein; values in nM) of about 0.0459 µM and an IC50 (Factor XIa; values in nM) of 0.0051 µM were found for C[C@H]1C[C@@H](c2ncc(-c3ncc(N)nc3F)[nH]2)n2c1nc(-c1c(-n3cnnn3)ccc(Cl)c1F)cc2=O (single isomer, unassigned) [Example 89, (6*S,8S)-6-(5-(5-Amino-3-fluoropyrazin-2-yl)-1H-imidazol-2-yl)-2-(3-chloro-2-fluoro-6-(1H-tetrazol-1-yl)phenyl)-8-methyl-7,8-dihydropyrrolo[1,2-a]pyrimidin-4(6H)-one] in this work.
